The values below come from patent publication US12435087B2, “Modulators of DCN-1 and methods of use thereof” (Cellarity, Inc., priority 2023, dated 2025).

As a reminder, the IC50 is the concentration at which inhibition is half-maximal.

Structures are written as SMILES. Read-outs that look alike come from different tables or passages of the source.

The target of the assay is DCN1 (DCUND1) protein PONY domain (Homo sapiens (Human), UniProt Q96GG9). Briefly: TR-FRET assay (binding to DCN-1, displacement of FAM-labeled probe). The essentials:
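Compounds read at 1, 5 and 24 h, 0.1% final DMSO, by TR-FRET between terbium-streptavidin on biotinylated DCN1 PONY domain (E. coli) and a FAM-tagged non-covalent inhibitor probe. Two setups used, 5 nM protein with 20 nM labelled probe, or 0.31 nM protein with 100 nM labelled plus 800 nM unlabelled probe; buffer had TritonX and 200 mM NaCl. % activity relative to high (with probe) and low (without probe) controls.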
Background: Time-resolved FRET reads energy transfer from a long-lived donor to a nearby acceptor.

The mark [1] stands for this setting: 24 hr after treatment with compound, read-out: TR FRET IC50 24 hr.
The mark [2] stands for this setting: TR FRET IC50 1 hr (nM), 1 hr after treatment with compound.
Setting [3] is: read-out: TR FRET IC50 1 hr, 1 hr after treatment with compound.

Chain of DCN1 (DCUND1) protein PONY domain (Q96GG9 60-248): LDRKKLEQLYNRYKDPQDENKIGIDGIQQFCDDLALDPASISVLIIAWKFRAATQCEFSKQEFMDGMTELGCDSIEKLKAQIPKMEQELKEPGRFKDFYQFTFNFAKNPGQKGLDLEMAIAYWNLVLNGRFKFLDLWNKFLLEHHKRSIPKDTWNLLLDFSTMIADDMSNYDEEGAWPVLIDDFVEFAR

As to `C=C(CN1CC2CC(C1)O2)C(=O)N(C)Cc1cccc([C@@H]2c3cnn(-c4ccccc4)c3N(CC)C(=O)[C@H]2NC(=O)c2ccn(C(F)(F)F)n2)c1` [Compound I-253], the half-inhibitory concentration (IC50) is, setting by setting: under setting [1], no more than 200 nM; under setting [2], 1000 to 3000 nM.

With `C=C(CN(C)C1COC1)C(=O)N(C)Cc1cccc([C@@H]2c3cnn(-c4ccccc4)c3N(CC)C(=O)[C@H]2NC(=O)c2nccc(C(F)(F)F)n2)c1` [Compound I-254], the half-inhibitory concentration (IC50) under setting [2] is 1000 to 3000 nM.

As to `CCN1C(=O)[C@@H](NC(=O)c2cccc(C(F)(F)F)c2)[C@H](c2cccc(CN(C)C/C=C/C(=O)N3CCCC3)c2)c2cnn(-c3ccccc3)c21` [Compound I-255], the IC50 is 1000 to 3000 nM under setting [1] and 1000 to 3000 nM under setting [2].

Regarding `C=C(C(=O)NCc1cccc([C@@H]2c3cnn(-c4ccccc4)c3N(CC)C(=O)[C@H]2NC(=O)c2nccc(C(F)(F)F)n2)c1)C(C)N1CCC12COC2` (stereo partly shown) [Compound I-256], the IC50 is no more than 200 nM under setting [1] and 200 to 1000 nM under setting [2].

Take `C=C(CN1CC2CC(C1)O2)C(=O)N(C)Cc1cccc([C@@H]2c3cnn(-c4ccccc4)c3N(CC)C(=O)[C@H]2NC(=O)c2ccn(C3CC3)n2)c1` [Compound I-258]: the half-inhibitory concentration (IC50) under setting [2] was 1000 to 3000 nM.

For the compound `C=C(CN1CC(F)(F)C1)C(=O)NCc1cccc([C@@H]2c3cnn(-c4ccccc4)c3N(CC)C(=O)[C@H]2NC(=O)c2nccc(C(F)(F)F)n2)c1` [Compound I-261], the IC50 under setting [1] was no more than 200 nM and the 50% inhibitory concentration (IC50) under setting [2] lay within 200 to 1000 nM.

With `CCN1C(=O)[C@@H](NC(=O)c2nccc(C(F)(F)F)n2)[C@H](c2cccc(CN3CC=CS3(=O)=O)c2)c2cnn(-c3ccccc3)c21` [Compound I-263, N-((4R,5S)-4-(3-((1,1-dioxidoisothiazol-2 (3H)-yl)methyl)phenyl)-7-ethyl-6-oxo-1-phenyl-4,5,6,7-tetrahydro-1H-pyrazolo[3,4-b]pyridin-5-yl)-4-(trifluoromethyl)pyrimidine-2-carboxamide], the IC50 by setting is: under setting [1], 1000 to 3000 nM; under setting [2], 1000 to 3000 nM.

`C=C(CN1CCCC1)C(=O)NCc1cccc([C@@H]2c3cnn(-c4ccccc4)c3N(CC)C(=O)[C@H]2NC(=O)c2cccc(C(F)(F)F)c2)c1` [Compound I-264]: the IC50 under setting [1] is no more than 200 nM and the concentration for half-maximal inhibition (IC50) under setting [3] was no more than 200 nM.

With `C=C(CN1CCOCC1)C(=O)NCc1cccc([C@@H]2c3cnn(-c4ccccc4)c3N(CC)C(=O)[C@H]2NC(=O)c2ccnn2C)c1` [Compound I-266], the IC50 is, setting by setting: under setting [1], 1000 to 3000 nM; under setting [2], 1000 to 3000 nM.

With `C=C(C(=O)NCc1cccc([C@@H]2c3cnn(-c4ccccc4)c3N(CC)C(=O)[C@H]2NC(=O)c2cccc(C(F)F)c2)c1)C(C)N(C)C1COC1` (stereo partly shown) [Compound I-277], the concentration for half-maximal inhibition (IC50) runs as follows: under setting [1], no more than 200 nM; under setting [3], no more than 200 nM.

`C=C(C(=O)NCc1cccc([C@@H]2c3cnn(-c4ccccc4)c3N(CC)C(=O)[C@H]2NC(=O)c2csc(C)n2)c1)C(C)N(C)C1COC1` (stereo partly shown) [Compound I-278]: the IC50 by setting is: under setting [1], no more than 200 nM; under setting [3], no more than 200 nM.

Take `C=C(CN1CC2(COC2)C1)C(=O)NCc1cccc([C@@H]2c3c(C)nn(-c4ccccc4)c3N(CC)C(=O)[C@H]2NC(=O)c2cccc(C(F)(F)F)c2)c1` [Compound I-283]: the 50% inhibitory concentration (IC50) is no more than 200 nM under setting [1] and no more than 200 nM under setting [3].

For the compound `C/C=C(\CN1CCOCC1)C(=O)NCc1cccc([C@@H]2c3cnn(-c4ccccc4)c3N(CC)C(=O)[C@H]2NC(=O)c2ccn(C(F)(F)F)n2)c1` [Compound I-284], the half-inhibitory concentration (IC50) under setting [1] was no more than 200 nM and the IC50 under setting [2] lay in the range of 1000 to 3000 nM.

As for `C=C(CN1CCOCC1)C(=O)NCc1cccc([C@H]2c3c(C)nn(-c4ccccc4)c3N(CC)C(=O)[C@@H]2NC(=O)c2cccc(C(F)(F)F)c2)c1` [Compound I-285], the IC50 under setting [1] is no more than 200 nM and the IC50 under setting [2] is 1000 to 3000 nM.

With `C=C(C(=O)N(C)Cc1cccc([C@@H]2c3cnn(-c4ccccc4)c3N(CC)C(=O)[C@H]2NC(=O)c2ccn(C3CC3)n2)c1)C(C)N1CC2CC(C1)O2` (stereo partly shown) [Compound I-286], the half-maximal inhibitory concentration (IC50) is no more than 200 nM under setting [1] and 1000 to 3000 nM under setting [2].

As to `C=C(C(=O)NCc1cccc([C@@H]2c3cnn(-c4ccccc4)c3N(CC)C(=O)[C@H]2NC(=O)c2ccn(C(F)(F)F)n2)c1)C(C)N1CC2CC(C1)O2` (stereo partly shown) [Compound I-287], the half-maximal inhibitory concentration (IC50) under setting [1] was no more than 200 nM and the half-maximal inhibitory concentration (IC50) under setting [3] is no more than 200 nM.

Regarding `C/C=C(\CN1CCN(C2COC2)CC1)C(=O)NCc1cccc([C@@H]2c3cnn(-c4ccccc4)c3N(CC)C(=O)[C@H]2NC(=O)c2ccn(C3CC3)n2)c1` [Compound I-288], the IC50 runs as follows: under setting [1], no more than 200 nM; under setting [2], 200 to 1000 nM.

Regarding `C=C(CN1C2CCC1COC2)C(=O)NCc1cccc([C@@H]2c3cnn(-c4ccccc4)c3N(CC)C(=O)[C@H]2NC(=O)c2cccc(C(F)(F)F)c2)c1` [Compound I-289], the IC50 is, setting by setting: under setting [1], no more than 200 nM; under setting [3], no more than 200 nM.

For `C=C(CN1CC2CC(C1)O2)C(=O)NCc1cccc([C@@H]2c3cnn(-c4ccccc4)c3N(CC)C(=O)[C@H]2NC(=O)c2cccc(C(F)(F)F)c2)c1` [Compound I-290], the IC50 under setting [1] was no more than 200 nM and the half-maximal inhibitory concentration (IC50) under setting [3] was no more than 200 nM.

Take `C=C(CN1CC(O)C1)C(=O)NCc1cccc([C@@H]2c3cnn(-c4ccccc4)c3N(CC)C(=O)[C@H]2NC(=O)c2cccc(C(F)(F)F)c2)c1` [Compound I-291]: the IC50 under setting [1] was no more than 200 nM and the IC50 under setting [3] was no more than 200 nM.

For the compound `C=C(CN1CC2CCC(C1)O2)C(=O)NCc1cccc([C@@H]2c3cnn(-c4ccccc4)c3N(CC)C(=O)[C@H]2NC(=O)c2nccc(C(F)(F)F)n2)c1` [Compound I-292], the half-maximal inhibitory concentration (IC50) was no more than 200 nM under setting [1] and no more than 200 nM under setting [3].

For `C=C(CN1CC2CCC1CO2)C(=O)NCc1cccc([C@@H]2c3cnn(-c4ccccc4)c3N(CC)C(=O)[C@H]2NC(=O)c2cccc(C(F)(F)F)c2)c1` (stereo partly shown) [Compound I-293], the half-maximal inhibitory concentration (IC50) was no more than 200 nM under setting [1] and no more than 200 nM under setting [3].

Take `C=C(CN1CC2CC1CO2)C(=O)NCc1cccc([C@H]2c3c(C)nn(-c4ccccc4)c3N(CC)C(=O)[C@@H]2NC(=O)c2cccc(C(F)(F)F)c2)c1` (stereo partly shown) [Compound I-294]: the IC50 by setting is: under setting [1], no more than 200 nM; under setting [2], 200 to 1000 nM.

Turning to `C=C(CN1CCOCC1)C(=O)N(C)Cc1cccc([C@@H]2c3cnn(-c4ccccc4)c3N(CC)C(=O)[C@H]2NC(=O)c2ccn(C(F)(F)F)n2)c1` [Compound I-295], the IC50 under setting [1] is no more than 200 nM and the half-maximal inhibitory concentration (IC50) under setting [2] lay in the range of 1000 to 3000 nM.

For `C=C(C(=O)NCc1cccc([C@@H]2c3cnn(-c4ccccc4)c3N(CC)C(=O)[C@H]2NC(=O)c2ccn(C(F)(F)F)n2)c1)C(C)N1CCOCC1` (stereo partly shown) [Compound I-296], the IC50 was no more than 200 nM under setting [1] and no more than 200 nM under setting [3].

With `C=C(CN1CCOCC1)C(=O)NCc1cccc([C@@H]2c3cnn(-c4ccccc4)c3N(CC)C(=O)[C@H]2NC(=O)c2ccn(CC(F)(F)F)n2)c1` [Compound I-297], the half-maximal inhibitory concentration (IC50) under setting [1] was no more than 200 nM and the 50% inhibitory concentration (IC50) under setting [2] was in the range of 200 to 1000 nM.

Turning to `C=C(CN1CCOCC1)C(=O)N[C@@H](C)c1cccc([C@@H]2c3cnn(-c4ccccc4)c3N(CC)C(=O)[C@H]2NC(=O)c2nccc(C(F)(F)F)n2)c1` [Compound I-299], the IC50 was 1000 to 3000 nM under setting [1] and 1000 to 3000 nM under setting [2].

For `C/C=C(\CN1CCN(C2COC2)CC1)C(=O)N(C)c1cccc([C@@H]2c3cnn(-c4ccccc4)c3N(CC)C(=O)[C@H]2NC(=O)c2csc(C(F)(F)F)n2)c1` [Compound I-301, N-((4R,5S)-7-ethyl-4-(3-((E)-N-methyl-2-((4-(oxetan-3-yl)piperazin-1-yl)methyl)but-2-enamido)phenyl)-6-oxo-1-phenyl-4,5,6,7-tetrahydro-1H-pyrazolo[3,4-b]pyridin-5-yl)-2-(trifluoromethyl)thiazole-4-carboxamide], the half-inhibitory concentration (IC50) under setting [1] lay within 200 to 1000 nM and the IC50 under setting [2] lay within 1000 to 3000 nM.

On to `C/C=C(\CN1CC2(COC2)C1)C(=O)NCc1cccc([C@@H]2c3cnn(-c4ccccc4)c3N(CC)C(=O)[C@H]2NC(=O)c2ccn(C(F)(F)F)n2)c1` [Compound I-302], for which the IC50 is, setting by setting: under setting [1], no more than 200 nM; under setting [2], 200 to 1000 nM.

For the compound `C=C(CN1CCC1)C(=O)NCc1cccc([C@@H]2c3c(C)nn(-c4ccccc4)c3N(CC)C(=O)[C@H]2NC(=O)c2cccc(C(F)(F)F)c2)c1` [Compound I-303], the IC50 runs as follows: under setting [1], no more than 200 nM; under setting [3], no more than 200 nM.

Consider `C=C(CN1CC2(COC2)C1)C(=O)NCc1cccc([C@H]2c3c(C)nn(-c4ccccc4)c3N(CC)C(=O)[C@H]2NC(=O)c2cccc(C(F)(F)F)c2)c1` [Compound I-304], for which the half-maximal inhibitory concentration (IC50) was in the range of 200 to 1000 nM under setting [1] and 1000 to 3000 nM under setting [2].

For `CCN1C(=O)[C@@H](NC(=O)c2cccc(C(F)(F)F)c2)[C@H](c2cccc(CNC/C=C/C(=O)OC(C)(C)C)c2)c2cnn(-c3ccccc3)c21` [Compound I-306, tert-butyl (E)-4-((3-((4R,5S)-7-ethyl-6-oxo-1-phenyl-5-(3-(trifluoromethyl)benzamido)-4,5,6,7-tetrahydro-1H-pyrazolo[3,4-b]pyridin-4-yl)benzyl)amino)but-2-enoate], the 50% inhibitory concentration (IC50) under setting [1] was in the range of 200 to 1000 nM and the IC50 under setting [2] lay in the range of 1000 to 3000 nM.

For `CCN1C(=O)[C@@H](NC(=O)c2cccc(C(F)(F)F)c2)[C@H](c2cccc(CNC/C=C/C(=O)N3CCCC3)c2)c2cnn(-c3ccccc3)c21` [Compound I-307], the IC50 reads like this: under setting [1], 1000 to 3000 nM; under setting [2], 1000 to 3000 nM.

`C=C(CN1CCOCC1)C(=O)NCc1cccc([C@@H]2c3cnn(-c4ccccc4)c3N(CC)C(=O)[C@H]2NC(=O)c2ccn(C(F)F)n2)c1` [Compound I-308]: the IC50 under setting [1] was no more than 200 nM and the IC50 under setting [2] is 200 to 1000 nM.

With `C/C=C(\CN1CCC1)C(=O)NCc1cccc([C@@H]2c3cnn(-c4ccccc4)c3N(CC)C(=O)[C@H]2NC(=O)c2ccn(C3CC3)n2)c1` [Compound I-309], the IC50 under setting [1] is no more than 200 nM and the IC50 under setting [2] was no more than 200 nM.

`C=C(C(=O)NCc1cccc([C@@H]2c3cnn(-c4ccccc4)c3N(CC)C(=O)[C@H]2NC(=O)c2nccc(C(F)(F)F)n2)c1)C(C)N1CCN(C2COC2)CC1` (stereo partly shown) [Compound I-310]: the IC50 under setting [1] was no more than 200 nM and the concentration for half-maximal inhibition (IC50) under setting [3] is no more than 200 nM.
